Measured values reported in ChEMBL document CHEMBL1135798, “Structure-activity relationships of the antimalarial agent artemisinin. 6. The development of predictive in vitro potency models using CoMFA and HQSAR methodologies” (2002).

Tested on: Plasmodium falciparum
Assay: Antimalarial activity against chloroquine-resistant, mefloquine-sensitive Plasmodium falciparum W2
Assay type: functional

| SMILES | Log RA |
| --- | --- |
| C[C@@H]1CC[C@@H]2[C@]34OO[C@](C)(CC[C@@H]13)O[C@H]4OC(=O)[C@@]21CO1 | -2.09 |
| C[C@@H]1CC[C@H]2[C@@H](CCCc3ccccc3)C(=O)O[C@@H]3O[C@@]4(C)CC[C@@H]1[C@]32O4 | -4 |
| CO[C@H]1O[C@@]2(C)CC[C@H]3CCC[C@@H](CCOC(=O)CNC(=O)OC(C)(C)C)[C@]31OO2 | -0.04 |
| CC[C@H]1CO[C@@H]2O[C@@]3(C)CC[C@H]4[C@H](C)CC[C@@H]1[C@@]24OO3 | 0.67 |
| C[C@@H]1CC[C@H]2[C@@H](C)C(CCCO)O[C@@H]3O[C@@]4(C)CC[C@@H]1[C@]32OO4 (stereo not given in full) | 0.78 |
| CCOC(=O)CC[C@@]12CC[C@H]3[C@H](C)CC[C@H]4CC(=O)O[C@H](O1)[C@]43OO2 | 0.37 |
| C[C@@H]1CC[C@@H]2[C@]34OO[C@](C)(CC[C@@H]13)O[C@H]4OC(Nc1ccccn1)[C@@]2(C)Br (stereo not given in full) | -0.09 |
| c1ccc([C@@]23CCC[C@](c4ccccc4)(CC2)OO3)cc1 | -0.91 |
| C[C@@H]1CC[C@H]2CC(=O)N(Cc3ccc(Cl)cc3)[C@@H]3O[C@@]4(C)CC[C@@H]1[C@@]23OO4 | -0.16 |
| CO[C@@H]1O[C@@]2(C)CC[C@H]3CC(C)(C)CC[C@]31OO2 | -0.47 |
| C[C@@H]1CC[C@@H]2[C@@H](C)CO[C@@H]3C[C@]4(C)CC[C@@H]1[C@]23OO4 | -0.24 |
| COc1ccc([C@@]23CCC[C@](c4ccc(OC)cc4)(CC2)OO3)cc1 | -0.67 |
| CC(C)CCN1C(=O)C[C@@H]2CC[C@@H](C)[C@@H]3CC[C@@]4(C)OO[C@@]23[C@H]1O4 | -0.04 |
| C[C@@H]1CC[C@H]2[C@@H](CCCCc3ccccc3)C(=O)O[C@@H]3O[C@@]4(C)CC[C@@H]1[C@]32O4 | -4 |
| C[C@@H]1CCC2[C@@H](C)COC3OC4(CCCC4)OO[C@@]32C1 (stereo not given in full) | -0.26 |
| CC(=O)Oc1ccc([C@H](C)O[C@H]2O[C@@H]3O[C@@]4(C)CC[C@H]5[C@H](C)CC[C@@H]([C@H]2C)[C@@]35OO4)cc1 | 0.68 |
| CC1CCO[C@@H]2O[C@@]3(C)CC[C@H]4[C@H](C)CC[C@@H]1[C@@]24OO3 (stereo not given in full) | -1.2 |
| C[C@@H]1CC[C@@H]2[C@]34OO[C@](C)(CC[C@@H]13)O[C@H]4OC(Nc1nccs1)[C@@]2(C)Br (stereo not given in full) | 0.66 |
| CCCCCC[C@H]1C(=O)O[C@@H]2O[C@@]3(C)CC[C@H]4[C@H](C)CC[C@@H]1[C@@]24O3 | -4 |
| C[C@@H]1CC[C@H]2[C@@H](CCc3ccccc3)C(=O)O[C@@H]3O[C@@]4(C)CC[C@@H]1[C@]32O4 | -4 |
| CCCN1C(=O)C[C@@H]2CC[C@@H](C)[C@@H]3CC[C@@]4(C)OO[C@@]23[C@H]1O4 | 0.05 |
| CCOC(=O)COC1O[C@@H]2O[C@@]3(C)CC[C@H]4[C@H](C)CC[C@@H]([C@H]1C)[C@@]24OO3 (stereo not given in full) | 0.52 |
| CO[C@H]1O[C@]2(C)OO[C@]13[C@H](CCO)CCC[C@@H]3C[C@@H]2C | 0.23 |
| CC(=O)Oc1ccc([C@@H](C)O[C@H]2O[C@@H]3O[C@@]4(C)CC[C@H]5[C@H](C)CC[C@@H]([C@H]2C)[C@@]35OO4)cc1 | 0.68 |
| CCOC(=O)[C@@H](O[C@H]1O[C@@H]2O[C@@]3(C)CC[C@H]4[C@H](C)CC[C@@H]([C@H]1C)[C@@]24OO3)c1ccccc1 | 1.25 |

| SMILES | Log RA |
| --- | --- |
| CO[C@@]1(C)CC[C@H]2[C@H](C)CCC[C@]2(C=O)OO1 | -4 |
| C[C@@H]1CC[C@H]2CC(=O)O[C@@H]3O[C@@]4(CCc5ccccc5)CC[C@@H]1[C@@]23O4 | -4 |
| CCOC1O[C@@H]2O[C@@]3(C)CC[C@H]4[C@H](C)CC[C@H]([C@@]24OO3)[C@@]1(C)O (stereo not given in full) | -1.13 |
| C=C1C(=O)O[C@@H]2O[C@@]3(C)CC[C@H]4[C@H](C)CC[C@@H]1[C@@]24OO3 [ARTEMISITENE] | -0.89 |
| C[C@@H]1CC[C@H]2C3(CC3)C(=O)O[C@@H]3O[C@@]4(C)CC[C@@H]1[C@]32OO4 | -0.94 |
| CC1=CO[C@@H]2O[C@@]3(C)CC[C@H]4[C@H](C)CC[C@@H]1[C@@]24OO3 | 0.78 |
| CCO[C@H]1O[C@@H]2O[C@@]3(C)CC[C@H]4C(C)C(=O)C[C@@H]([C@H]1C)[C@@]24OO3 (stereo not given in full) | 0.16 |
| C[C@@H]1CC[C@H]2[C@@H](C)C(CC(F)F)O[C@@H]3O[C@@]4(C)CC[C@@H]1[C@]32OO4 (stereo not given in full) | 0.11 |
| CCOC1C[C@@H]2CC[C@@H](C)[C@@H]3CC[C@@]4(C)OO[C@@]23[C@H](O1)O4 (stereo not given in full) | 0.43 |
| C/C=C1\C(=O)O[C@@H]2O[C@@]3(C)CC[C@H]4[C@H](C)CC[C@@H]1[C@@]24OO3 | -0.36 |
| C[C@@H]1CC[C@@H]2[C@]34OO[C@](C)(CC[C@@H]13)O[C@H]4OC(OCC(F)(F)F)[C@]2(C)O (stereo not given in full) | -0.7 |
| COC(=O)c1ccc(COC2O[C@@H]3O[C@@]4(C)CC[C@H]5[C@H](C)CC[C@@H]([C@H]2C)[C@@]35OO4)cc1 (stereo not given in full) | -0.07 |
| CCOC1O[C@@H]2O[C@@]3(C)CC[C@H]4[C@H](C)CC[C@@H]([C@H]1C)[C@@]24OO3 (stereo not given in full) | 0.34 |
| C[C@@H]1CC[C@H]2CC(=O)O[C@@H]3O[C@@]4(C)CC[C@@H]1[C@@]23OO4 | 0.79 |
| CO[C@H]1O[C@@]2(C)CC[C@H]3CCC[C@@H](CCOC(=O)c4ccc(C(=O)O)cc4)[C@]31OO2 | -0.81 |
| C[C@@H]1CCC2[C@@H](C)COC3OC(C)(C)OO[C@@]32C1 (stereo not given in full) | -0.8 |
| C[C@H]1[C@@H](O[C@@H](C)c2ccc(C(=O)O)cc2)O[C@@H]2O[C@@]3(C)CC[C@H]4[C@H](C)CC[C@@H]1[C@@]24OO3 | 0.21 |
| CCCC[C@H]1C(=O)O[C@@H]2O[C@@]3(CCCC)CC[C@H]4[C@H](C)CC[C@@H]1[C@@]24OO3 | -0.48 |
| CO[C@H]1O[C@@]2(C)CC[C@H]3CCC[C@@H](CCOCc4ccncc4)[C@]31OO2 | 0.14 |
| c1ccc([C@]23CC[C@@](c4ccccc4)(COC2)OO3)cc1 | -2.26 |
| C[C@@H]1CC[C@H]2CC(=O)O[C@@H]3O[C@@]4(CCCCc5ccccc5)CC[C@@H]1[C@@]23OO4 | 0.45 |
| C[C@@H]1CC[C@H]2[C@@H](C)C(=O)N(Cc3ccccn3)[C@@H]3O[C@@]4(C)CC[C@@H]1[C@@]23O4 | -4 |
| C[C@@H]1CC[C@@H]2[C@]34OO[C@](C)(CC[C@@H]13)O[C@H]4OC(Nc1ccccc1)[C@@]2(C)Br (stereo not given in full) | 0.18 |
| CC(C)CN1C(=O)[C@H](C)[C@@H]2CC[C@@H](C)[C@@H]3CC[C@@]4(C)OO[C@]32[C@H]1O4 | 1.03 |
| C[C@H]1C(=O)OC2OC(C)(C)OO[C@@]23CCCCC13 (stereo not given in full) | -1.27 |
